Test results as given in PMC6413085, “A Validated HPLC-MS/MS Assay for 14-O-[(4,6-Diaminopyrimidine-2-yl)thioacetyl] Mutilin in Biological Samples and Its Pharmacokinetic, Distribution and Excretion via Urine and Feces in Rats” (Molecules, 2019).

Assays:
[1] = Excretion via urine and feces study in rats; type: in vivo, Sprague-Dawley rats; details: rat, 75 mg/kg
Procedure: Excretion via urine and feces was studied in another six rats (half male and half female). After the rats were administered via a single i.v., i.m. and p.o. dose (75 mg/kg) of DPTM, urine and feces samples were collected at 0–4, 4–8, 8–12, 12–24, 24–36, 36–48, 48–72, 72–96, 96–144, 144–192 and 192–240 h intervals in plastic centrifuge tubes and stored at −70 °C until analysis. For quantitative analysis, the fecal samples were dried at 45 °C for 24 h and prepared by the established sample treatment procedure. The urinary samples were prepared by the established sample treatment procedure directly. The obtained samples were injected into the HPLC-MS/MS system for analysis.

[2] = Stability of DPTM in plasma, tissue homogenates, urine and feces (QC samples); type: physicochemical, rat
Procedure: Stability of DPTM and IS was examined by comparing the analytes’ concentrations in freshly prepared samples with those of samples maintained under different conditions, including the 24 h storage at room temperature, three freeze and thaw cycles, and storage at −70 °C for 4 weeks, respectively. Analyzing three levels of QC samples were used to assess the stability (accuracy and precision) with six replicates.
For the construction of calibration curves, 20 μL of each corresponding standard working solution (0.05, 0.2, 0.5, 1, 2, 5, 10, 20 and 40 μg/mL) was evaporated to dryness by nitrogen at 40 °C. The calibration standards (5, 20, 50, 100, 200, 500, 1000, 2000 and 4000 ng/mL) were prepared by adding 200 μL of blank plasma, various tissue homogenates (including heart, liver, spleen, lung, kidney, large intestine, small intestine, ileum, cecum, bladder, brain, jejunum and colon) or urine and feces to the residue, respectively. Quality control (QC) samples (10, 200 and 3000 ng/mL) were obtained by the same way as the calibration standards. All solutions were stored at −70 °C before use for no longer than 4 weeks.

C=CC1(C)CC(OC(=O)CSc2nc(N)cc(N)n2)C2(C)C(C)CCC3(CCC(=O)C32)C(C)C1O (stereo not shown) [DPTM, 14-O-[(4,6-Diaminopyrimidine-2-yl)thioacetyl] mutilin]
DPTM in urine (192 h) and feces (240 h) at the last acquisition time point ([1]; LLOQ 5 ng/mL): lower than that of the LLOQ | prototype drug excreted in urine at 192 h ([1]; i.m.): 1.39% | prototype drug excreted in urine at 192 h ([1]; i.v.): 1.63% | prototype drug excreted in urine at 192 h ([1]; p.o.): 1.20% | Stability RE ([2]; Bladder, 10 ng/mL, Freeze-thaw Cycles): 3.9% | Stability RE ([2]; Bladder, 10 ng/mL, Long-term (−70 °C, 4 Weeks)): 3.6% | Stability RE ([2]; Bladder, 10 ng/mL, Short-term (25 °C, 24 h)): 4.1% | Stability RE ([2]; Bladder, 200 ng/mL, Freeze-thaw Cycles): 5.1% | Stability RE ([2]; Bladder, 200 ng/mL, Long-term (−70 °C, 4 Weeks)): 5.1% | Stability RE ([2]; Bladder, 200 ng/mL, Short-term (25 °C, 24 h)): 1.9% | Stability RE ([2]; Bladder, 3000 ng/mL, Freeze-thaw Cycles): 3.5% | Stability RE ([2]; Bladder, 3000 ng/mL, Long-term (−70 °C, 4 Weeks)): 3.3% | Stability RE ([2]; Bladder, 3000 ng/mL, Short-term (25 °C, 24 h)): 3.1% | Stability RE ([2]; Brain, 10 ng/mL, Freeze-thaw Cycles): 4.9% | Stability RE ([2]; Brain, 10 ng/mL, Long-term (−70 °C, 4 Weeks)): 5.3% | Stability RE ([2]; Brain, 10 ng/mL, Short-term (25 °C, 24 h)): 1.1% | Stability RE ([2]; Brain, 200 ng/mL, Freeze-thaw Cycles): 6.5% | Stability RE ([2]; Brain, 200 ng/mL, Long-term (−70 °C, 4 Weeks)): 6.6% | Stability RE ([2]; Brain, 200 ng/mL, Short-term (25 °C, 24 h)): 3.3% | Stability RE ([2]; Brain, 3000 ng/mL, Freeze-thaw Cycles): 4.1% | Stability RE ([2]; Brain, 3000 ng/mL, Long-term (−70 °C, 4 Weeks)): 4.1% | Stability RE ([2]; Brain, 3000 ng/mL, Short-term (25 °C, 24 h)): 8.1% | Stability RE ([2]; Cecum, 10 ng/mL, Freeze-thaw Cycles): 7.2% | Stability RE ([2]; Cecum, 10 ng/mL, Long-term (−70 °C, 4 Weeks)): 6.4% | Stability RE ([2]; Cecum, 10 ng/mL, Short-term (25 °C, 24 h)): 6.7% | Stability RE ([2]; Cecum, 200 ng/mL, Freeze-thaw Cycles): 3.9% | Stability RE ([2]; Cecum, 200 ng/mL, Long-term (−70 °C, 4 Weeks)): 3.2% | Stability RE ([2]; Cecum, 200 ng/mL, Short-term (25 °C, 24 h)): 3.1% | Stability RE ([2]; Cecum, 3000 ng/mL, Freeze-thaw Cycles): −4.9% | Stability RE ([2]; Cecum, 3000 ng/mL, Long-term (−70 °C, 4 Weeks)): −6.4% | Stability RE ([2]; Cecum, 3000 ng/mL, Short-term (25 °C, 24 h)): −5.1% | Stability RE ([2]; Colon, 10 ng/mL, Short-term (25 °C, 24 h)): 5.4% | Stability RE ([2]; Ileum, 10 ng/mL, Freeze-thaw Cycles): −3.5% | Stability RE ([2]; Ileum, 10 ng/mL, Long-term (−70 °C, 4 Weeks)): 3.2% | Stability RE ([2]; Ileum, 10 ng/mL, Short-term (25 °C, 24 h)): 2.9% | Stability RE ([2]; Ileum, 200 ng/mL, Freeze-thaw Cycles): 5.2% | Stability RE ([2]; Ileum, 200 ng/mL, Long-term (−70 °C, 4 Weeks)): −5.1% | Stability RE ([2]; Ileum, 200 ng/mL, Short-term (25 °C, 24 h)): 1.7% | Stability RE ([2]; Ileum, 3000 ng/mL, Freeze-thaw Cycles): 3.3% | Stability RE ([2]; Ileum, 3000 ng/mL, Long-term (−70 °C, 4 Weeks)): 3.5% | Stability RE ([2]; Ileum, 3000 ng/mL, Short-term (25 °C, 24 h)): 3.1% | Stability RE ([2]; Jejunum, 10 ng/mL, Freeze-thaw Cycles): 6.1% | Stability RE ([2]; Jejunum, 10 ng/mL, Long-term (−70 °C, 4 Weeks)): 5.6% | Stability RE ([2]; Jejunum, 10 ng/mL, Short-term (25 °C, 24 h)): 7.2% | Stability RE ([2]; Jejunum, 200 ng/mL, Freeze-thaw Cycles): 7.3% | Stability RE ([2]; Jejunum, 200 ng/mL, Long-term (−70 °C, 4 Weeks)): 7.3% | Stability RE ([2]; Jejunum, 200 ng/mL, Short-term (25 °C, 24 h)): 7.5% | Stability RE ([2]; Jejunum, 3000 ng/mL, Freeze-thaw Cycles): −5.4% | Stability RE ([2]; Jejunum, 3000 ng/mL, Long-term (−70 °C, 4 Weeks)): −5.6% | Stability RE ([2]; Jejunum, 3000 ng/mL, Short-term (25 °C, 24 h)): −5.3% | Stability RE ([2]; Kidney, 10 ng/mL, Freeze-thaw Cycles): 3.7% | Stability RE ([2]; Kidney, 10 ng/mL, Long-term (−70 °C, 4 Weeks)): 3.5%
